Data as given in PMC9246869, “Allosteric inhibition of PPM1D serine/threonine phosphatase via an altered conformational state” (Nature Communications, 2022).

Molecular target: T1, PPM1D1–420 (Homo sapiens, UniProt O15297)
T1 construct: PPM1D1–420 was PCR-amplified from the synthesized gene with BsaI sites; His(6)-SUMO (N, cleaved yes); made in house; host or cells: E. coli BL21 (DE3)
T1 sequence (O15297 1-420): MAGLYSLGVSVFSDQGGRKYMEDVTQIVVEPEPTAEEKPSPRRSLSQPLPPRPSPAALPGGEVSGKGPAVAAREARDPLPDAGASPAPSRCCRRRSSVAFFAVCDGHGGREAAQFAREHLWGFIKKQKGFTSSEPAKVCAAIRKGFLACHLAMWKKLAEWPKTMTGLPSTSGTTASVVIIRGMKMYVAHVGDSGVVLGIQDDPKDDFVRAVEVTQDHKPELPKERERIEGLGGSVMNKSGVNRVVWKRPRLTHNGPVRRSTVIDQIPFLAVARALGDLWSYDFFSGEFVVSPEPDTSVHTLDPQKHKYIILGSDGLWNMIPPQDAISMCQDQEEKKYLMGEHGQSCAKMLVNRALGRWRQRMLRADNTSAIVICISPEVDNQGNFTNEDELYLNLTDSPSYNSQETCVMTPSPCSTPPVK
Test: Hydrogen–deuterium exchange mass spectrometry (HDX-MS)
Description: Hydrogen–deuterium exchange in PPM1D proteins (PPM1D1–420, PPM1D∆Flap, and PPM1D∆Hinge) was monitored by incubating 27 pmoles of protein in storage buffer (50 mM Tris HCl pH 7.4, 500 mM NaCl, 10% glycerol, 10 mM MgCl2, 1 mM TCEP, H2O) with a 10-fold molar excess of GSK2830371 (270 pmoles) in DMSO, or 3.85% DMSO as a control. Due to the low solubility of the compound, the exact molar excess was unknown. […] The slow off-rate of the compound likely plays a role in this. The PPM1D:GSK/DMSO mix equilibrated for 15 min at room temperature, followed by the addition of a 15-fold excess of labeling buffer (20 mM HEPES, pD 7.5, 25 mM NaCl, 5 mM MgCl2, 0.1 mM TCEP, D2O) at 25 °C. Analysis of C-terminal truncations of PPM1D were performed without the DMSO and preincubation step. […]
All samples were digested immediately after quench by injecting directly into an M-class nanoAcquity UPLC with HDX technology (Waters) for online digestion with an Enzymate BEH pepsin column [2.1 × 30 mm, 5 μm (Waters)] and UPLC peptide separation. […] Back-exchange was calculated based on deuterium uptake observed in peptides within PPM1D that are solvent accessible, lack structure, and display these characteristics in their uptake profile (high deuterium incorporation that remains a flat line over 4 h time course). […]

Cc1ncc(Cl)cc1NCc1ccc(C(=O)N[C@@H](CC2CCCC2)C(=O)NC2CC2)s1 [GSK2830371]
protein in the exposed population (bimodal distribution, residues 270-278) in presence of compound: > 95%
